Measurements from EP4458916A1, “PHOTOCATALYTICALLY ACTIVE COATING COMPOSITION, METHOD FOR THE PRODUCTION THEREOF AND USE THEREOF” (priority 2023, dated 2024).
Where two headings read alike, the source gives them in different places.

Legend:
[1] = tested on: verschiedene Bakterienstämme; assay: Bacteria test following modified ISO 22196, photodynamic effect of a SolGel coating on different bacterial strains; format: cell-based; conditions: Rezeptur 5 coating on Melamin, 2 mM, 4 h
Excerpt: (§1) Die Bestimmung der antimikrobiellen Aktivität erfolgte nach einer modifizierten Version der ISO 22196:2011-08 ("Messung von antibakterieller Aktivität auf Kunststoff- und anderen porenfreien Oberflächen", Ausgabedatum: 2011-08).
(§2) Bei der Testdurchführung wurde ein dünner Flüssigkeitsfilm, in dem die Bakterien enthalten sind (1,25 x 10^4 /cm2), direkt auf die Probekörper (2,5 cm x 2,5 cm) aufgebracht. Direkt nach Beimpfung wurden von der Nullprobe die Bakterien von den Probekörperoberflächen mittels Ultraschall und Vortexen abgelöst und die Keimzahl (KBE (engl. CFU), Kolonie-bildende Einheit) bestimmt (t0-Wert). Ein weiterer Satz Nullproben und antimikrobiell ausgestatteter Proben wurden mit Bakterien im Flüssigkeitsfilm bei Raumtemperatur inkubiert. Nach 4 h wurden überlebende Bakterien von den Probekörperoberflächen mittels Ultraschall und Vortexen abgelöst und die Keimzahl bestimmt (t4-Wert).
(§3) Im Unterschied zu der in der ISO 22196:2011-08 beschriebenen Methode wurde das Inokulum nicht mit einer Folie abgedeckt und die Inkubationszeit von 24 auf 4 Stunden reduziert. Weiterhin wurden die Platten der Proben 3 und 4 mit Licht mit einer Intensität von 300 µW/cm2 belichtet.
Die Ergebnisse sind Tabelle 53 dargestellt. Tabelle 53: Photodynamische Wirkung einer SolGel Beschichtung gegen verschiedene Bakterienstämme

[2] = Immersion test: binding / wash-out of photocatalysts from SolGel coatings (1 h deionised water, UV-VIS signal loss); format: physicochemical; conditions: Rezeptur 5 coating on glass, dye 10 bis 40 mM; 1 h deionised water pH 6 ± 1, 22 ± 3 °C; relative UV-VIS signal loss at absorption maximum
Experimental: Für alle Untersuchungen wurden nach Beispiel 8 beschichtete Glasträger verwendet.
Um das Auswaschen der verschiedenen Farbstoffe in den Sol-Gel-Beschichtungen zu beurteilen wurde ein Immersionstest in vollentsalztem Wasser mit einem pH-Wert von (6 ± 1) und einer Wassertemperatur von (22 ± 3) °C für eine Stunde durchgeführt. Dazu wurden zunächst Schichten (Rezeptur 5, Beispiel 4, aufgefüllt mit 3,0 mL 2-Propanol; sh. Tabelle 3) mit erhöhter Farbstoffkonzentration (10 bis 40 mM; um die notwendige Auflösung bei der dünnen Schicht zu erreichen) auf Glas-Objektträgern erzeugt. Diese wurden nach dem Ablüften bei Raumtemperatur (30 min) eine Stunde bei 60°C nachgehärtet. Anschließend wurden die Schichten direkt im UV-VIS-Spektrometer vermessen. Die Ausgangswerte (Absorptionsmaximum des jeweiligen Farbstoffs) sollten dabei zwischen 0,05 A.U. und 1,50 A.U. liegen.
Nach einer Stunde in VE-Wasser wurden die Prüfkörper getrocknet und erneut gemessen. Aus den beiden Messungen wurde ein relativer Signalverlust in Prozent bei dem farbstoffspezifischen Absorptionsmaximum bestimmt.
Dieser Immersionstest diente dazu, das Auswaschverhalten verschiedener Farbstoffe aus Beschichtungssystemen zu beurteilen. Weiter soll er dabei helfen, verschiedene Farbstoffklassen oder verschiedene Farbstoffderivate einer Farbstoffklasse bezüglich dieser Charakteristik miteinander zu vergleichen. Die Ergebnisse sind in den folgenden Tabellen sortiert nach Stoffgruppen zusammengefasst: […]

Bakterien [3] = assay: Thermal ageing: bacteria test (ISO 22196) after accelerated ageing ASTM F1980-16 at 60°C for 4 weeks; format: cell-based; conditions: 4 h, beschleunigte Alterung 60°C, Rezeptur 2 (Borsäure) on Melamin, 2 mM
Excerpt: as §1, §2, §3
Zur Beurteilung der Schicht auf Alterungsprozesse, wurde eine beschleunigte Alterung nach ASTM F1980-16 bei 60°C für 4 Wochen durchgeführt.
Der Bakterientest wurde in Anlehnung an ISO 22196 nach oben beschriebener Methode durchgeführt. Die Ergebnisse sind in der Tabelle 62 zusammengefasst. Tabelle 62: Mikrobiologische Wirksamkeit (log10 Reduktion) bei beschleunigter Alterung (60°C).

Bakterien [4] = assay: Room light tests (Raumlichtversuche): antimicrobial efficacy at 10 µW/cm^2 for 24 h; format: cell-based; conditions: Farbstoff 5 mM, coating Rezeptur 3, Beispiel 2a (2,5 eq aqueous boric acid, 50 mM)
Experimental: Um die antimikrobielle Wirksamkeit in einem realen Szenario abzuschätzen, wurden sogenannte Raumlichtversuche durchgeführt. Dazu wurden die mit Bakterien versetzten Probenträger mit einer, für Innenräume repräsentativen Lichtintensität von 10 µW/cm^2 für einen Zeitraum von 24 h bestrahlt.
Herstellung der Beschichtung erfolgte gemäß Beispiel 2a (2,5 eq wässrige Borsäure, 50 mM), mit Rezeptur 3. Die Ergebnisse sind in der Tabelle 63 zusammengefasst. Tabelle 63: Antimikrobielle Wirksamkeit bei Raumlichtbedingungen

verschiedene Virenstämme = assay: Virus test following ISO 21702, photodynamic effect of a SolGel coating on different virus strains; conditions: read-out: Log10 Reduktion Probe
Bakterien [5] = assay: Photostability: bacteria test (ISO 22196) after simulated long-term illumination (18 mW/cm^2, 405 nm); format: cell-based; conditions: 4 h, Rezeptur 2 (Borsäure) on Melamin, 2 mM
Excerpt: as §1, §2, §3
Zur Bewertung der Photostabilität des Farbstoffs S-25a (2 mM) in der Beschichtung wurden beschichtete Flächen mit 18 mW/cm^2 (405 nm, ca. 200 Fache Raumlichtintensität, Zeitrafferversuch) bestrahlt. So wurde eine Echtzeit-Photostabilität von 2 Jahren simuliert.
Der Bakterientest wurde in Anlehnung an ISO 22196 nach oben beschriebener Methode durchgeführt. Die Ergebnisse sind in der Tabelle 61 zusammengefasst. Tabelle 61: Mikrobiologische Wirksamkeit nach simulierter Photobelastung für 1, 2, 3, 6, 12 und 24 Monate

S.aureus = format: cell-based; conditions: for Log10 Reduktion Dunkelkontrolle 1 mM / Log10 Reduktion Dunkelkontrolle 2 mM: dark; for Log10 Reduktion Wirksamkeit 1 mM / Log10 Reduktion Wirksamkeit 2 mM: light
[6] = Rezeptur 2, Verdünnung mit IPA 1:2
[7] = Rezeptur 2, Verdünnung mit IPA 1:5
[8] = Rezeptur 2, Verdünnung mit IPA 1:8

CC(C)(O)c1cc[n+](CC2=Cc3cccc4cccc(c34)C2=O)cc1 [S-25a]
log reduction at 2000 µM ([1]; Acinetobacter baumannii, ATCC15308, A. baumanii ATCC 15308 (Gram negativ), 300 µW/cm2, read-out: Log10 Reduktion Probe): > 4 | log reduction at 2000 µM ([1]; Acinetobacter baumannii, ATCC15308, A. baumanii ATCC 15308 (Gram negativ), dark, read-out: Log10 Reduktion Dunkelkontrolle): 0.1 | log reduction at 2000 µM ([1]; Enterococcus faecium, E.faecium EDCC 5271 (Gram positiv), 300 µW/cm2, read-out: Log10 Reduktion Probe): > 4 | log reduction at 2000 µM ([1]; Enterococcus faecium, E.faecium EDCC 5271 (Gram positiv), dark, read-out: Log10 Reduktion Dunkelkontrolle): 0 | log reduction at 2000 µM ([1]; Staphylococcus aureus, ATCC6538, S.aureus ATCC 6538 (Gram positiv), 300 µW/cm2, read-out: Log10 Reduktion Probe): > 4 | log reduction at 2000 µM ([1]; Staphylococcus aureus, ATCC6538, S.aureus ATCC 6538 (Gram positiv), dark, read-out: Log10 Reduktion Dunkelkontrolle): 0.1 | Verlust durch Auswaschen [2]: 8% | log reduction at 2000 µM (Bakterien [3]; 0 Wo, dark, read-out: Log10 Reduktion nach 0 Wo, Dunkelkontrolle): 0.1 | log reduction at 2000 µM (Bakterien [3]; 0 Wo, read-out: Log10 Reduktion nach 0 Wo, Probe): 3.9 | log reduction at 2000 µM (Bakterien [3]; 1 Wo, dark, read-out: Log10 Reduktion nach 1 Wo, Dunkelkontrolle): 0 | log reduction at 2000 µM (Bakterien [3]; 1 Wo, read-out: Log10 Reduktion nach 1 Wo, Probe): 3.8 | log reduction at 2000 µM (Bakterien [3]; 2 Wo, dark, read-out: Log10 Reduktion nach 2 Wo, Dunkelkontrolle): 0 | log reduction at 2000 µM (Bakterien [3]; 2 Wo, read-out: Log10 Reduktion nach 2 Wo, Probe): 3.4 | log reduction at 2000 µM (Bakterien [3]; 3 Wo, dark, read-out: Log10 Reduktion nach 3 Wo, Dunkelkontrolle): 0.3 | log reduction at 2000 µM (Bakterien [3]; 3 Wo, read-out: Log10 Reduktion nach 3 Wo, Probe): 3.3 | log reduction at 2000 µM (Bakterien [3]; 4 Wo, dark, read-out: Log10 Reduktion nach 4 Wo, Dunkelkontrolle): 0.4 | log reduction at 2000 µM (Bakterien [3]; 4 Wo, read-out: Log10 Reduktion nach 4 Wo, Probe): 2.8 | log reduction at 5000 µM (Bakterien [4]; 24 h, dark control, read-out: Log10 Reduktion Dunkelkontrolle): 1.1 | log reduction at 5000 µM (Bakterien [4]; illuminated 10 µW/cm^2 for 24 h, read-out: Log10 Reduktion 24 h): 2.6 | log reduction at 2000 µM (verschiedene Virenstämme; 83 min): 5.5 | log reduction at 2000 µM (verschiedene Virenstämme; Influenza A virus, H1N1, 83 min): 3.8 | log reduction at 2000 µM (verschiedene Virenstämme; unidentified adenovirus, 83 min): 2 | log reduction at 2000 µM (Bakterien [5]; 2 Monate simulated, dark, read-out: Log10 Reduktion nach x Monaten simulierter Belastung: 2, Dunkelkontrolle): 0.2 | log reduction at 2000 µM (Bakterien [5]; 3 Monate simulated, dark, read-out: Log10 Reduktion nach x Monaten simulierter Belastung: 3, Dunkelkontrolle): 0.2 | log reduction at 2000 µM (Bakterien [5]; 24 Monate simulated, dark, read-out: Log10 Reduktion nach x Monaten simulierter Belastung: 24, Dunkelkontrolle): 0.2 | log reduction at 2000 µM (Bakterien [5]; pre-illumination 18 mW/cm^2, 405 nm, 0 Monate, read-out: Log10 Reduktion nach x Monaten simulierter Belastung: Start (0), Probe): 4.7 | log reduction at 2000 µM (Bakterien [5]; pre-illumination 18 mW/cm^2, 405 nm, 1 Monat simulated, read-out: Log10 Reduktion nach x Monaten simulierter Belastung: 1, Probe): 4.6 | log reduction at 2000 µM (Bakterien [5]; pre-illumination 18 mW/cm^2, 405 nm, 2 Monate simulated, read-out: Log10 Reduktion nach x Monaten simulierter Belastung: 2, Probe): 4.3 | log reduction at 2000 µM (Bakterien [5]; pre-illumination 18 mW/cm^2, 405 nm, 3 Monate simulated, read-out: Log10 Reduktion nach x Monaten simulierter Belastung: 3, Probe): 4.2 | log reduction at 2000 µM (Bakterien [5]; pre-illumination 18 mW/cm^2, 405 nm, 6 Monate simulated, read-out: Log10 Reduktion nach x Monaten simulierter Belastung: 6, Probe): 4.3 | log reduction at 2000 µM (Bakterien [5]; pre-illumination 18 mW/cm^2, 405 nm, 12 Monate simulated, read-out: Log10 Reduktion nach x Monaten simulierter Belastung: 12, Probe): 4.3 | log reduction at 2000 µM (Bakterien [5]; pre-illumination 18 mW/cm^2, 405 nm, 24 Monate simulated, read-out: Log10 Reduktion nach x Monaten simulierter Belastung: 24, Probe): 4.3 | Log10 Reduktion Dunkelkontrolle 1 mM (S.aureus; [6]): 0,1±0,4 | Log10 Reduktion Dunkelkontrolle 2 mM (S.aureus; [6]): 0,0±0,0 | Log10 Reduktion Wirksamkeit 1 mM (S.aureus; [6]): 3,0±0,2 | Log10 Reduktion Wirksamkeit 2 mM (S.aureus; [6]): 3,3±0,5 | Log10 Reduktion Dunkelkontrolle 1 mM (S.aureus; [7]): 0,0±0,2 | Log10 Reduktion Dunkelkontrolle 2 mM (S.aureus; [7]): 0,1±0,1 | Log10 Reduktion Wirksamkeit 1 mM (S.aureus; [7]): 2,0±0,2 | Log10 Reduktion Wirksamkeit 2 mM (S.aureus; [7]): 2,8±0,2 | Log10 Reduktion Dunkelkontrolle 1 mM (S.aureus; [8]): 0,0±0,2 | Log10 Reduktion Dunkelkontrolle 2 mM (S.aureus; [8]): 0,0±0,1 | Log10 Reduktion Wirksamkeit 1 mM (S.aureus; [8]): 1,5±0,1 | Log10 Reduktion Wirksamkeit 2 mM (S.aureus; [8]): 2,7±0,6
